Experimental data as given in patent US9481659B2, “Selective heterocyclic sphingosine 1 phosphate receptor modulators” (Celgene International II SÀRL, priority 2011, dated 2016).
Counter-ions that a name gives are not always drawn.

What follows are compounds tested against S1P1/EDG1 (Homo sapiens, UniProt P21453) (assay: S1P1 CRE-bla CHOK1 reporter assay, inhibition of Forskolin induced cAMP). Conditions: agonist activity range; S1P1 CRE-bla CHOK1 cells, 2 μM Forskolin; read-out: S1P1 ACTIVITY.
S1P1/EDG1, sequence (P21453 whole entry): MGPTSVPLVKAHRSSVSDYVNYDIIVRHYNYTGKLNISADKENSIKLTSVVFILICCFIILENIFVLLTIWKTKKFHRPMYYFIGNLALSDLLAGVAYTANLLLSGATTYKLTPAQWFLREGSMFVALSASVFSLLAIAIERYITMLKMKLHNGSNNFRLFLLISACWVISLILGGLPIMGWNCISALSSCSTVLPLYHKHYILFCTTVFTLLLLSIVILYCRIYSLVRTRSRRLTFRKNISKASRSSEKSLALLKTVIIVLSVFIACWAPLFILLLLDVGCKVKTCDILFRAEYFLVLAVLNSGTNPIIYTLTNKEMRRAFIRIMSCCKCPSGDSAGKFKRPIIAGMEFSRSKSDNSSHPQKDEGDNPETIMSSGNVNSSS
Assay type: cell-based
Outline: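 CRE-bla CHO K1 cells stably expressing human S1P1 were treated 4 hrs at 37° C with 10-point compound dilutions plus 2 μM Forskolin. Inhibition of cAMP-driven β-lactamase reporter was read with a FRET substrate loaded 2 hrs at room temperature.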
Work on `CC(C)Oc1ccc(-c2nnc(-c3cccc4c3CCC[C@@H]4NS(=O)(=O)CCO)s2)cc1C#N` [Compound 290, (S)—N-(5-(5-(3-cyano-4-isopropoxyphenyl)-1,3,4-thiadiazol-2-yl)-1,2,3,4-tetrahydronaphthalen-1-yl)-2-hydroxyethanesulfonamide] yielded an EC50 of 0.05 to 0.5 nM. `CC(C)Oc1ccc(-c2ncc(-c3cccc4c3CC[C@H]4NS(=O)(=O)CCN3CCC3)s2)cc1C#N` [Compound 127] was tested, and the EC50 was 0.5 to 5 nM. For `CC(C)Oc1ccc(-c2nsc(-c3cccc4c3CC[C@@H]4N)n2)cc1C#N` [Compound 308, (S)-5-(5-(1-amino-2,3-dihydro-1H-inden-4-yl)-1,2,4-thiadiazol-3-yl)-2-isopropoxy benzonitrile hydrochloride], the EC50 was 0.5 to 5 nM. For `CC(C)Oc1ccc(-c2nnc(-c3cccc4c3CCC[C@H]4NS(C)(=O)=O)s2)cc1C#N` [Compound 278, (R)—N-(5-(5-(3-cyano-4-isopropoxyphenyl)-1,3,4-thiadiazol-2-yl)-1,2,3,4-tetrahydronaphthalen-1-yl)methanesulfonamide], the EC50 was 0.05 to 0.5 nM. With `CC(C)Oc1ccc(-c2nnc(-c3cccc4c3CC[C@H]4NC(=O)N3CC(O)C3)s2)cc1C#N` [Compound 65] the EC50 was 0.05 to 0.5 nM. For `COC(=O)N[C@@H]1CCc2c(-c3nnc(-c4ccc(OC(C)C)c(C#N)c4)s3)cccc21` [Compound 68], the EC50 was 0.05 to 0.5 nM. For `CC(C)Oc1ccc(-c2ncc(-c3cccc4c3CCC[C@H]4N)s2)cc1C#N` [Compound 230, (R)-5-(5-(5-amino-5,6,7,8-tetrahydronaphthalen-1-yl)thiazol-2-yl)-2-isopropoxybenzonitrile hydrochloride], the EC50 was 0.5 to 5 nM. For `CC(C)Oc1ccc(-c2ncc(-c3cccc4c3CC[C@H]4NC(=O)N3CCC[C@H](O)C3)s2)cc1C#N` [Compound 197], the EC50 was 0.5 to 5 nM. `CC(C)Oc1ccc(-c2ncc(-c3cccc4c3CC[C@H]4NC(=O)[C@H](N)CO)s2)cc1C#N` [Compound 80] was tested, and the EC50 was 0.05 to 0.5 nM. `CC(C)Oc1ccc(-c2nnc(-c3cccc4c3CCC[C@H]4NCCN(C)C)s2)cc1C#N` [Compound 274, (R)-5-(5-(5-((2-(dimethylamino)ethyl)amino)-5,6,7,8-tetrahydronaphthalen-1-yl)-1,3,4-thiadiazol-2-yl)-2-isopropoxybenzonitrile] was tested, and the EC50 was 0.5 to 5 nM. `CC(C)Oc1ccc(-c2nnc(-c3cccc4c3CCC[C@H]4NC(=O)c3cccnc3)s2)cc1C#N` [Compound 234] was tested, and the EC50 was 0.5 to 5 nM. `CNC(=O)CN[C@H]1CCCc2c(-c3nnc(-c4ccc(OC(C)C)c(C#N)c4)s3)cccc21` [Compound 306] gave an EC50 of 0.05 to 0.5 nM. `CC(C)Oc1ccc(-c2nnc(-c3cccc4c3CCC[C@H]4NS(=O)(=O)C3CC3)s2)cc1C#N` [Compound 282] showed an EC50 of 0.5 to 5 nM. With `CC(C)Oc1ccc(-c2ncc(-c3cccc4c3CC[C@H]4NS(=O)(=O)CCN3CCC[C@H](O)C3)s2)cc1C#N` [Compound 144] the EC50 was 0.5 to 5 nM. `CC(C)Oc1ccc(-c2ncc(-c3cccc4c3CC[C@H]4NC(=O)N(C)C)s2)cc1C#N` [Compound 168] showed an EC50 of 0.05 to 0.5 nM. In the case of `CC(C)Oc1ccc(-c2ncc(-c3cccc4c3CC[C@H]4NCC(=O)N3CC[C@@H](O)C3)s2)cc1C#N` [Compound 103], the EC50 is reported as 0.05 to 0.5 nM. Work on `CC(C)Oc1ccc(-c2nnc(-c3cccc4c3CCC[C@@H]4NS(N)(=O)=O)s2)cc1C#N` [Compound 276, (S)—N-(5-(5-(3-cyano-4-isopropoxyphenyl)-1,3,4-thiadiazol-2-yl)-1,2,3,4-tetrahydronaphthalen-1-yl)sulfamide] yielded an EC50 of 0.05 to 0.5 nM. With `CCOC(=O)CCS(=O)(=O)N[C@H]1CCCc2c(-c3nnc(-c4ccc(OC(C)C)c(C#N)c4)s3)cccc21` [Compound 286, (S)-ethyl 3-(N-(5-(5-(3-cyano-4-isopropoxyphenyl)-1,3,4-thiadiazol-2-yl)-1,2,3,4-tetrahydronaphthalen-1-yl)sulfamoyl)propanoate] the EC50 was 0.05 to 0.5 nM. Work on `CC(C)Oc1ccc(-c2ncc(-c3cccc4c3CC[C@H]4NCC(=O)N3CCNCC3)s2)cc1C#N` [Compound 107] yielded an EC50 of 0.5 to 5 nM. Compound `CC(C)Oc1ccc(-c2nnc(-c3cccc4c3CCC[C@@H]4NCC(=O)N3CCCC3)s2)cc1C#N` [Compound 304, (S)-2-isopropoxy-5-(5-(5-((2-oxo-2-(pyrrolidin-1-yl)ethyl)amino)-5,6,7,8-tetrahydronaphthalen-1-yl)-1,3,4-thiadiazol-2-yl)benzonitrile] has an EC50 of 0.5 to 5 nM. `CC(C)Oc1ccc(-c2nnc(-c3cccc4c3CC[C@H]4O)s2)cc1C#N` [Compound 2, (R)-5-(5-(1-hydroxy-2,3-dihydro-1H-inden-4-yl)-1,3,4-thiadiazol-2-yl)-2-isopropoxybenzonitrile] showed an EC50 of 0.05 to 0.5 nM. With `CC(C)Oc1ccc(-c2ncc(-c3cccc4c3CC[C@@H]4NS(=O)(=O)CCN3CC[C@@H](O)C3)s2)cc1C#N` [Compound 131] the EC50 was 0.5 to 5 nM. Work on `CC(C)Oc1ccc(-c2nnc(-c3cccc4c3CCC[C@@H]4NS(=O)(=O)C3CC3)s2)cc1C#N` [Compound 283] yielded an EC50 of 0.05 to 0.5 nM. For `COCC(=O)N[C@@H]1CCc2c(-c3cnc(-c4ccc(OC(C)C)c(C#N)c4)s3)cccc21` [Compound 75], the EC50 was 0.05 to 0.5 nM. For `CC(C)Oc1ccc(-c2nnc(-c3cccc4c3CCC[C@H]4NCc3cnco3)s2)cc1C#N` [Compound 273], the EC50 was 0.5 to 5 nM. `CC(C)Oc1ccc(-c2nnc(-c3cccc4c3CCC[C@H]4NCc3ncc[nH]3)s2)cc1C#N` [Compound 265] was tested, and the EC50 was 0.5 to 5 nM. Compound `CC(C)Oc1ccc(-c2ncc(-c3cccc4c3CC[C@H]4NCCS(C)(=O)=O)s2)cc1C#N` [Compound 220, (R)-2-isopropoxy-5-(5-(1-((2-(methylsulfonyl)ethyl)amino)-2,3-dihydro-1H-inden-4-yl)thiazol-2-yl)benzonitrile] has an EC50 of 0.05 to 0.5 nM. `CC(C)Oc1ccc(-c2ncc(-c3cccc4c3CC[C@H]4NC(=O)N3CC[C@@H](O)C3)s2)cc1C#N` [Compound 174] was tested, and the EC50 was 0.05 to 0.5 nM. With `CC(C)Oc1ccc(-c2nc(-c3cccc4c3CC[C@@H]4NCCO)ns2)cc1C#N` [Compound 311, (S)-5-(3-(1-(2-hydroxyethyl)amino)-2,3-dihydro-1H-inden-4-yl)-1,2,4-thiadiazol-5-yl)-2-isopropoxybenzonitrile hydrochloride] the EC50 was 0.5 to 5 nM. For `CC(C)Oc1ccc(-c2nnc(-c3cccc4c3CCC[C@@H]4NS(=O)(=O)CCCO)s2)cc1C#N` [Compound 291], the EC50 was 0.05 to 0.5 nM. For `COC(=O)N[C@@H]1CCCc2c(-c3nnc(-c4ccc(OC(C)C)c(C#N)c4)s3)cccc21` [Compound 244], the EC50 was 0.5 to 5 nM. `CNCCS(=O)(=O)N[C@@H]1CCc2c(-c3cnc(-c4ccc(OC(C)C)c(C#N)c4)s3)cccc21` [Compound 126] was tested, and the EC50 was 0.5 to 5 nM. `COCC(=O)N[C@H]1CCCc2c(-c3nnc(-c4ccc(OC(C)C)c(C#N)c4)s3)cccc21` [Compound 239] showed an EC50 of 0.5 to 5 nM. For `CC(C)Oc1ccc(-c2ncc(-c3cccc4c3CC[C@H]4NC(=O)N3CCC(CC(=O)O)CC3)s2)cc1C#N` [Compound 200], the EC50 was 0.05 to 0.5 nM. `CC(C)Oc1ccc(-c2nnc(-c3cccc4c3CCC[C@@H]4NS(=O)(=O)CC(=O)O)s2)cc1C#N` [Compound 288, (S)-2-(N-(5-(5-(3-cyano-4-isopropoxyphenyl)-1,3,4-thiadiazol-2-yl)-1,2,3,4-tetrahydronaphthalen-1-yl)sulfamoyl) acetic acid] showed an EC50 of 0.05 to 0.5 nM. In the case of `COC(=O)CC1CCN(C(=O)N[C@@H]2CCc3c(-c4cnc(-c5ccc(OC(C)C)c(C#N)c5)s4)cccc32)CC1` [Compound 204], the EC50 is reported as 0.5 to 5 nM. Work on `CC(C)Oc1ccc(-c2ncc(-c3cccc4c3CC[C@H]4NC(=O)N3CC[C@H](N(C)C)C3)s2)cc1C#N` [Compound 182] yielded an EC50 of 0.5 to 5 nM. For `CC(C)Oc1ccc(-c2ncc(-c3cccc4c3CC[C@H]4NS(=O)(=O)CCN3CC[C@@H](O)C3)s2)cc1C#N` [Compound 133], the EC50 was 0.5 to 5 nM. With `COCC(=O)N[C@@H]1CCCc2c(-c3nnc(-c4ccc(OC(C)C)c(C#N)c4)s3)cccc21` [Compound 237] the EC50 was 0.05 to 0.5 nM. `CC(C)Oc1ccc(-c2nnc(-c3cccc4c3CC[C@H]4NCCO)s2)cc1C#N` [Compound 17, (R)-5-(5-(1-((2-hydroxyethyl)amino)-2,3-dihydro-1H-inden-4-yl)-1,3,4-thiadiazol-2-yl)-2-isopropoxybenzonitrile] was tested, and the EC50 was 0.05 to 0.5 nM. `CC(C)Oc1ccc(-c2nnc(-c3cccc4c3CCC[C@@H]4NCc3cnco3)s2)cc1C#N` [Compound 269] gave an EC50 of 0.5 to 5 nM. With `CC(C)Oc1ccc(-c2nnc(-c3cccc4c3CCC[C@@H]4NC(=O)CCO)s2)cc1C#N` [Compound 255] the EC50 was 0.05 to 0.5 nM. In the case of `CC(C)Oc1ccc(-c2nnc(-c3cccc4c3CC[C@H]4NCCS(C)(=O)=O)s2)cc1C#N` [Compound 32, (R)-2-isopropoxy-5-(5-(1-((2-(methylsulfonyl)ethyl)amino)-2,3-dihydro-1H-inden-4-yl)-1,3,4-thiadiazol-2-yl)benzonitrile], the EC50 is reported as under 0.05 nM. `CC(C)Oc1ccc(-c2ncc(-c3cccc4c3CC[C@H]4NS(=O)(=O)CCO)s2)cc1C#N` [Compound 164, (R)—N-(4-(2-(3-cyano-4-isopropoxyphenyl)thiazol-5-yl)-2,3-dihydro-1H-inden-1-yl)-2-hydroxyethanesulfonamide] showed an EC50 of 0.05 to 0.5 nM. For `CC(C)Oc1ccc(-c2ncc(-c3cccc4c3CC[C@H]4NC(=O)Cc3ccccc3)s2)cc1C#N` [Compound 83], the EC50 was over 5 nM. With `CC(C)Oc1ccc(-c2nnc(-c3cccc4c3CCC[C@H]4NC(=O)c3ccccn3)s2)cc1C#N` [Compound 235] the EC50 was 0.5 to 5 nM. `CC(C)Oc1ccc(-c2ncc(-c3cccc4c3CC[C@H]4NC(=O)N3CCC[C@H](O)C3)s2)cc1C#N` [Compound 199] showed an EC50 of 0.05 to 0.5 nM. `CC(C)Oc1ccc(-c2ncc(-c3cccc4c3CC[C@H]4NS(=O)(=O)CCN3CCOCC3)s2)cc1C#N` [Compound 121] showed an EC50 of 0.5 to 5 nM. `CC(C)Oc1ccc(-c2ncc(-c3cccc4c3CC[C@H]4NS(=O)(=O)CCN3CC[C@H](N)C3)s2)cc1C#N` [Compound 136] showed an EC50 of over 5 nM. Compound `CC(C)Oc1ccc(-c2ncc(-c3cccc4c3CC[C@H]4NCC(=O)N3CC[C@H](O)C3)s2)cc1C#N` [Compound 102, 5-(5-((R)-1-((2-((S)-3-hydroxypyrrolidin-1-yl)-2-oxoethyl)amino)-2,3-dihydro-1H-inden-4-yl)thiazol-2-yl)-2-isopropoxybenzonitrile hydrochloride] has an EC50 of 0.05 to 0.5 nM. `CC(C)Oc1ccc(-c2nnc(-c3cccc4c3CCC[C@H]4NCc3c[nH]cn3)s2)cc1C#N` [Compound 261] gave an EC50 of over 5 nM.
